Data on four compounds can be found in US20220363665A1, “QUINOLINE COMPOUNDS FOR THE TREATMENT OF AUTOIMMUNE DISEASE” (Hoffmann-La Roche Inc., priority 2019, published 2022).

pIC50: −log10 of the molar value.

This assay addresses T1, human TLR8 (Homo sapiens, UniProt Q9NR97).
T1 construct: host or cells: HEK293 (HEK-Blue hTLR8)
T1 sequence (Q9NR97 27-1041): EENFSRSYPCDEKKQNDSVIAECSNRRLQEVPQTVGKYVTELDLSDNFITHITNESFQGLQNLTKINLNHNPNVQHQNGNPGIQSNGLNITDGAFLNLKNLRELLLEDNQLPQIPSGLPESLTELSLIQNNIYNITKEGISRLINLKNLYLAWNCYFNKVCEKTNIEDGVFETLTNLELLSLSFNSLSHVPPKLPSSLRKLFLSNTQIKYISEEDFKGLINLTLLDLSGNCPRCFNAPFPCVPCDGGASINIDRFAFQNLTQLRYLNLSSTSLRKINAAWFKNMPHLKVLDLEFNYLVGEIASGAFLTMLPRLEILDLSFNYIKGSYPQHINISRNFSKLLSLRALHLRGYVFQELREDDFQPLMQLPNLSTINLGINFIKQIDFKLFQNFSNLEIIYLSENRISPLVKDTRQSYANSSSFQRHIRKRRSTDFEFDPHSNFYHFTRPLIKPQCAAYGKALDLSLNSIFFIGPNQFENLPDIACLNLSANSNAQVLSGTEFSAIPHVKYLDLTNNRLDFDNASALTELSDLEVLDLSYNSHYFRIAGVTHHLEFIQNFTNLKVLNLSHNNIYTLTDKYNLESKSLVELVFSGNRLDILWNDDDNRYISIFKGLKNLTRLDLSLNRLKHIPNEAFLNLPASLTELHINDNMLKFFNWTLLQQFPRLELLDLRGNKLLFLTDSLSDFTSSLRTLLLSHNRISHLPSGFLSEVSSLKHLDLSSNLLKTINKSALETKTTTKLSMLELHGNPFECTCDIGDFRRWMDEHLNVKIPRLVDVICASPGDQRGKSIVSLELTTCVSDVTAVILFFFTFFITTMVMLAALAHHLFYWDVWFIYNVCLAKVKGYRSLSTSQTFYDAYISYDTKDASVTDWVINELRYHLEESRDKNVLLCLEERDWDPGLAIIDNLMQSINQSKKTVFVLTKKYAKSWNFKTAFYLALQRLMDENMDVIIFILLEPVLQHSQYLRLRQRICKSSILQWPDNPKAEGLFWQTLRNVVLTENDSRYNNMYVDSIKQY
Put plainly: HEK293-Blue-hTLR-8 cells assay (SEAP reporter, R848 stimulation). It is filed as cell-based. The conditions noted are these: HEK293-Blue-hTLR8 cells, R848, 20 hrs. As for the experimental part: The following tests were carried out in order to determine the activity of the compounds of formula (I) in HEK293-Blue-hTLR-7/8/9 cells assay.
HEK293-Blue-hTLR-8 Cells Assay:
A stable HEK293-Blue-hTLR-8 cell line was purchased from InvivoGen (Cat. #: hkb-htlr8, San Diego, Calif., USA). These cells were originally designed for studying the stimulation of human TLR8 by monitoring the activation of NF-κB. A SEAP (secreted embryonic alkaline phosphatase) reporter gene was placed under the control of the IFN-β minimal promoter fused to five NF-κB and AP-1-binding sites. The SEAP was induced by activating NF-κB and AP-1 via stimulating HEK-Blue hTLR8 cells with TLR8 ligands. Therefore the reporter expression was declined by TLR8 antagonist under the stimulation of a ligand, such as R848, for incubation of 20 hrs. The cell culture supernatant SEAP reporter activity was determined using QUANTI-Blue™ kit (Cat #. rep-qbl, Invivogen, San Diego, Calif., USA) at a wavelength of 640 nm, a detection medium that turns purple or blue in the presence of alkaline phosphatase.
HEK293-Blue-hTLR8 cells were incubated at a density of 250,000˜450,000 cells/mL in a volume of 170 μL in a 96-well plate in Dulbecco's Modified Eagle's medium (DMEM) containing 4.5 g/L glucose, 50 U/mL penicillin, […], […], 2 mM L-glutamine, 10% (v/v) heat-inactivated fetal bovine serum with addition of 20 μL test compound in a serial dilution in the presence of final DMSO at 1% and 10 μL of 60 μM R848 in above DMEM, perform incubation under 37° C. in a CO2 incubator for 20 hrs. Then 20 μL of the supernatant from each well was incubated with 180 μL Quanti-blue substrate solution at 37° C. for 2 hrs and the absorbance was read at 620˜655 nm using a spectrophotometer. The signalling pathway that TLR8 activation leads to downstream NF-KB activation has been widely accepted, and therefore similar reporter assay was modified for evaluating TLR8 antagonist.
With `Cc1ccc(N2C[C@@H](C)O[C@@H](C(=O)NCC3CN(C)CCO3)C2)c2cccnc12` (stereo partly drawn) [Example 17, (2R,6R)-6-methyl-N-[(4-methylmorpholin-2-yl)methyl]-4-(8-methyl-5-quinolyl)morpholine-2-carboxamide], the pIC50 is 7.60.

Consider `C[C@@H]1CN(c2ccc(I)c3ncccc23)C[C@H](C(=O)NC2CNCC2F)O1` (stereo partly drawn) [Example 40, cis-(2R,6R)-N-[4-fluoropyrrolidin-3-yl]-4-(8-iodo-5-quinolyl)-6-methyl-morpholine-2-carboxamide], for which the pIC50 was > 8.52.

Consider `C[C@@H]1CN(c2ccc(C(F)(F)F)c3ncccc23)C[C@H](C(=O)NC2CC3CNCC32)O1` (single isomer, unassigned) [Example 49A], for which the negative logarithm of the IC50 (pIC50) is 7.66.

Compound `C[C@@H]1CN(c2ccc(C(F)(F)F)c3ncccc23)C[C@H](C(=O)NC2CC3CNCC32)O1` (single isomer, unassigned) [Example 49C] gave a pIC50 of 8.30.
